This note sets out measurements from ChEMBL document CHEMBL1201862, “PubChem BioAssay data set” (2004).

The structures appear in SMILES notation.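 Cells were grown in 96-well plates and exposed to each compound for 48 hours at five concentrations; endpoints were interpolated linearly between bracketing concentrations, or set to the highest concentration if not reached. GI50 marks 50% less growth.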 The source made the active and inactive calls. Cut-off read from the data, not from the text of the source: active = GI50 up to about 1.1 µM and inactive = higher.

Some test systems named below: CCRF-CEM; NCI-H460; CAKI-1; SK-OV-3; MOLT-4; M14; A549; A498; EKVX; MDA-MB-231; T47D; MCF7; UACC-257; SW-620; PC-3; NCI/ADR-RES; COLO 205; IGROV-1.
What all share (assay): inhibition of tumour cell growth, NCI panel, 48 h

As to `Cc1c(-c2ccccc2)[nH]c2cc(Cl)ccc2c1=O`, the GI50 is > 100 µM (inactive) in the test with CCRF-CEM; 0.631 µM (active) in the test on NCI-H460; 29.2 µM (inactive) in the test with CAKI-1; 39.4 µM (inactive) with SK-OV-3; > 100 µM (inactive) in the test on MOLT-4; 76.2 µM (inactive) in the test on M14. Also, the GI50 was 1.96 µM (inactive) in the test with A549; > 100 µM (inactive) in the test on A498; > 100 µM (inactive) in the test on EKVX; 70.8 µM (inactive) with MDA-MB-231; > 100 µM (inactive) in the test on T47D; 37 µM (inactive) in the test with MCF7. In the test with UACC-257, the GI50 is 49.2 µM (inactive).
With `Cn1c2ccc(C3=NCCN3)cc2c2cc(C3=NCCN3)ccc21`, the GI50 is < 0.01 µM (active) in the test with CCRF-CEM; 5.38 µM (inactive) with NCI-H460; 17.6 µM (inactive) in the test on SW-620; > 100 µM (inactive) in the test on CAKI-1; 34.3 µM (inactive) in the test with PC-3; > 100 µM (inactive) in the test with NCI/ADR-RES. For the same compound, the GI50 in the test on SK-OV-3 is 44.1 µM (inactive); in the test with MOLT-4 it was 0.637 µM (active); in the test on M14, 48.6 µM (inactive); with COLO 205 it was 0.724 µM (active); in the test with A549 it was 46.1 µM (inactive); in the test on A498, > 100 µM (inactive). In addition, the GI50 in the test on EKVX is 17 µM (inactive); with MDA-MB-231, 41.2 µM (inactive); with T47D, 7.89 µM (inactive); in the test with IGROV-1 it was 24.5 µM (inactive); in the test on UACC-257 it was 43.8 µM (inactive).
For the compound `c1cc2c(s1)-c1sccc1C21OCCO1`, the GI50 with CCRF-CEM, in the test with NCI-H460, in the test with CAKI-1, in the test with NCI/ADR-RES, with MOLT-4 and in the test with M14 was > 100 µM (inactive) each time. In addition, the GI50 in the test on COLO 205 is > 100 µM (inactive); in the test on A549 it was 69 µM (inactive); in the test on EKVX, > 100 µM (inactive); in the test with MDA-MB-231, > 100 µM (inactive); with T47D, 17.3 µM (inactive); in the test with MCF7, 49.9 µM (inactive). Further, the GI50 in the test with UACC-257 was 45.6 µM (inactive).
`COCC1OC(OC2C3=C(C(C)C)CCC3(C)/C=C3\C(CCC3(O)COC)C(C)C2O)C(O)C2OC3OC12OC3(C)C1CO1` (stereo not given): the GI50 in the test with CCRF-CEM is 24.3 µM (inactive); in the test with NCI-H460 it was 32.7 µM (inactive); in the test with SW-620, 34.4 µM (inactive); in the test on CAKI-1, 21.8 µM (inactive); with PC-3 it was 35 µM (inactive); in the test with SK-OV-3, 51.8 µM (inactive). For the same compound, the GI50 is 27.6 µM (inactive) with MOLT-4; 43.2 µM (inactive) in the test on M14; 41.5 µM (inactive) in the test with COLO 205; 53.8 µM (inactive) in the test with A549; 44 µM (inactive) in the test on A498; 37.5 µM (inactive) with EKVX. For the same compound, the GI50 in the test with MDA-MB-231 was 50.9 µM (inactive); with T47D it was 29.4 µM (inactive); in the test with MCF7, 45.5 µM (inactive); in the test with IGROV-1, 37.8 µM (inactive); in the test with UACC-257 it was 40.3 µM (inactive).
For the compound `CC(=O)O[C@H]1CC[C@H]2[C@@H]3CCC4=C/C(=N/OCCN(C)C)CC[C@]4(C)[C@H]3CC[C@]12C`, the GI50 is 2.52 µM (inactive) with CCRF-CEM; 8.22 µM (inactive) with NCI-H460; 9.51 µM (inactive) in the test with SW-620; 14 µM (inactive) in the test with CAKI-1; 12.5 µM (inactive) in the test with PC-3; 12.6 µM (inactive) in the test with NCI/ADR-RES. The GI50 with SK-OV-3 was 12.2 µM (inactive); with MOLT-4, 5.42 µM (inactive); with M14, 3.18 µM (inactive); in the test with COLO 205 it was 2.27 µM (inactive); in the test on A549 it was 12 µM (inactive); in the test on EKVX, 14.4 µM (inactive). Moreover, the GI50 was 20.2 µM (inactive) with MDA-MB-231; 5.81 µM (inactive) with T47D; 5.64 µM (inactive) with MCF7; 13.1 µM (inactive) in the test with IGROV-1; 7.38 µM (inactive) with UACC-257.
On to `O=C(Cn1c2ccc(Br)cc2c2nc3ccccc3nc21)NNC(=O)NC1CCCCC1`, for which the GI50 in the test with CCRF-CEM was 26.7 µM (inactive); in the test with NCI-H460, 47.8 µM (inactive); in the test with SW-620, 33 µM (inactive); in the test on CAKI-1 it was 30.3 µM (inactive); with PC-3 it was 37.7 µM (inactive); with SK-OV-3, 50.7 µM (inactive). The GI50 is 25.2 µM (inactive) with MOLT-4; 40.3 µM (inactive) in the test on M14; 86.9 µM (inactive) in the test on COLO 205; 18.3 µM (inactive) in the test on A549; > 100 µM (inactive) in the test on A498; 65.8 µM (inactive) with EKVX. In addition, the GI50 with MDA-MB-231 is 30.1 µM (inactive); in the test on T47D it was 33 µM (inactive); in the test on MCF7 it was 49 µM (inactive); in the test with UACC-257, 98.9 µM (inactive).
On to `CC(C)CC(C(N)=O)C(=O)NC(Cc1ccccc1)NC(=O)CNC(=O)C(C)NC(=O)C(N)Cc1ccc(O)cc1` (stereo not given), for which the GI50 in the test with CCRF-CEM, in the test with NCI-H460, in the test with SW-620, in the test with CAKI-1, in the test on PC-3 and with NCI/ADR-RES was > 100 µM (inactive) in each case. Also, the GI50 in the test on SK-OV-3, with MOLT-4, in the test with M14, with COLO 205, in the test with A549 and in the test on EKVX was > 100 µM (inactive) throughout. The GI50 with MDA-MB-231, in the test with T47D, in the test with MCF7, with IGROV-1 and in the test on UACC-257 was > 100 µM (inactive) each time.
On to `O=S(=O)(Cc1nc2ccccc2s1)c1nc2ccccc2s1`, for which the GI50 in the test on CCRF-CEM was 5.5 µM (inactive); in the test on NCI-H460, 38 µM (inactive); with SW-620, 17.2 µM (inactive); in the test on PC-3 it was 17 µM (inactive); with NCI/ADR-RES it was 43.2 µM (inactive); with SK-OV-3, 37 µM (inactive). In addition, the GI50 is 17.6 µM (inactive) in the test on MOLT-4; 13 µM (inactive) in the test on M14; 17.9 µM (inactive) with COLO 205; 29.3 µM (inactive) with A549; 19.2 µM (inactive) in the test on A498; 18.5 µM (inactive) in the test on EKVX. In addition, the GI50 was 17.1 µM (inactive) in the test on MDA-MB-231; 21.3 µM (inactive) in the test on T47D; 18.7 µM (inactive) in the test on MCF7; 18.7 µM (inactive) with IGROV-1; 15.8 µM (inactive) in the test with UACC-257.
In the case of `CCOC(=O)C1C(=O)C=C(c2cc(C)ccc2O)CC1c1cccc(Cl)c1` (stereo not given), the GI50 was 19.8 µM (inactive) in the test with CCRF-CEM; 26.1 µM (inactive) in the test on NCI-H460; 29 µM (inactive) with SW-620; 30.7 µM (inactive) in the test on CAKI-1; 11.5 µM (inactive) with PC-3; 17.5 µM (inactive) with NCI/ADR-RES. For the same compound, the GI50 with SK-OV-3 was 20 µM (inactive); with MOLT-4, 22.6 µM (inactive); in the test with M14, 30.1 µM (inactive); with COLO 205, 18.5 µM (inactive); with A549 it was 19 µM (inactive); in the test on EKVX, 30.1 µM (inactive). The GI50 in the test on MDA-MB-231 is 23.9 µM (inactive); in the test with T47D, 36.1 µM (inactive); in the test with MCF7, 19.5 µM (inactive); in the test on IGROV-1, 13.6 µM (inactive); in the test with UACC-257 it was 2.12 µM (inactive).
Turning to `CC(=O)/C=C/C1=C(C)CCCC1(C)CC(C)C` (stereo not given), the GI50 in the test with CCRF-CEM was 14.9 µM (inactive); in the test with NCI-H460, 29.1 µM (inactive); in the test on SW-620, 18.6 µM (inactive); in the test on CAKI-1, 42.8 µM (inactive); in the test with PC-3, 35 µM (inactive); with SK-OV-3, 55.5 µM (inactive). Besides, the GI50 in the test on MOLT-4 is 17.7 µM (inactive); in the test on M14, 31.6 µM (inactive); in the test with COLO 205, 30.3 µM (inactive); in the test with A549, 24.9 µM (inactive); in the test on A498, 24.2 µM (inactive); in the test with EKVX, 39.7 µM (inactive). In addition, the GI50 was 70.8 µM (inactive) with MDA-MB-231; 15.3 µM (inactive) in the test with T47D; 25.2 µM (inactive) with MCF7; 29.3 µM (inactive) with IGROV-1; 22.2 µM (inactive) in the test with UACC-257.
Consider `CCCCC[C@H]1CCCCCCCCCC(=O)OC2C(O[C@@H]3OC(C)[C@H](OC(=O)[C@@H](C)CC)C(O[C@@H]4OC(C)[C@H](O)C(O)[C@@H]4O)[C@@H]3OC(=O)[C@H](C)CC)[C@H](OC3C(O)[C@@H](O)C(C)O[C@H]3O1)OC(CO)[C@H]2O` (stereo not given in full), for which the GI50 with CCRF-CEM is 18.6 µM (inactive); with NCI-H460, 18.2 µM (inactive); with SW-620 it was 16.5 µM (inactive); in the test with CAKI-1 it was 17.3 µM (inactive); in the test with PC-3 it was 16.2 µM (inactive); in the test on NCI/ADR-RES, 18.8 µM (inactive). Also, the GI50 is 15.6 µM (inactive) in the test with SK-OV-3; 15.6 µM (inactive) with MOLT-4; 18.2 µM (inactive) in the test on M14; 11.9 µM (inactive) with COLO 205; 16.8 µM (inactive) in the test with A549; 19.2 µM (inactive) in the test with EKVX. Further, the GI50 in the test on MDA-MB-231 was 16.8 µM (inactive); in the test on T47D, 17 µM (inactive); with MCF7, 17.3 µM (inactive); in the test with IGROV-1, 17.1 µM (inactive); in the test with UACC-257, 15.8 µM (inactive).
Consider `Nc1ccccc1NC(=O)c1ccc(CNC(=O)OCc2cccnc2)cc1` [ENTINOSTAT], for which the GI50 in the test on CCRF-CEM is 0.757 µM (active); in the test on NCI-H460 it was 0.558 µM (active); with SW-620, 0.929 µM (active); in the test on PC-3, 2.88 µM (inactive); in the test on NCI/ADR-RES, 1.24 µM (inactive); in the test on SK-OV-3, 4.9 µM (inactive). The GI50 in the test with MOLT-4 was 0.557 µM (active); in the test on M14, 1.04 µM (active); with COLO 205, 1.17 µM (inactive); in the test on A549, 3 µM (inactive); with A498 it was 0.429 µM (active); in the test with EKVX it was 1.72 µM (inactive). Moreover, the GI50 with MDA-MB-231 is 2.1 µM (inactive); with T47D, 0.708 µM (active); with MCF7, 0.845 µM (active); with IGROV-1, 2.78 µM (inactive); in the test on UACC-257 it was 1.59 µM (inactive).
